According to patent publication US20260102387A1, “IMMUNOSUPPRESSIVE COMPOUNDS” (UNIVERSITÄT BASEL, priority 2022, published 2026):
Where two headings read alike, the source gives them in different places.

Assays:
coronin 1 promoter = assay: EC50 analysis for coronin 1 promoter driven GFP inhibition by flow cytometry in RBL cells; assay type: cell-based; conditions: RBL cells, 48-65 h, flow cytometry
Experimental: RBL cells that had been incubated with the indicated calcium channel blockers (amlodipine (3.125 μM) and verapamil (8 μM) concentrations for 48 h were analyzed by flow cytometry for any alteration in coronin 1 promoter driven GFP fluorescence. The results reveal no effect of calcium channel blockers on coronin 1 promoter activity (FIG. 4).
(§1) RBL cells expressing GFP under coronin 1 promoter and optionally with RBL cells expressing RFP under CMV promoter were mixed in equal numbers and incubated with the compounds at indicated concentrations for 48-65 h and analyzed by flow cytometry for alteration in coronin 1 promoter (GFP fluorescence), CMV promoter (RFP fluorescence) values. In addition, the cells were labelled with live-dead marker for assessing cell viability status by flow cytometry. Cycloheximide (CHX) serves as positive control and DMSO serves as negative controls. Effective Concentration (EC50) values for coronin 1 promoter inhibition via GFP fluorescence analysis, non-specific promoter inhibition via CMV promoter driven-RFP fluorescence analysis and cell viability via live/dead staining as a measure for toxicity in flow cytometry for compounds (10-22 and 50a-65a) are shown in Table 6 and Table 7. Based on the EC50 analysis of the inhibition of coronin 1 promoter driven GFP fluorescence the (4S,7R)-configurated eutomers were identified (Structures FIG. 9A-C). This is exemplified for compounds containing two stereocenters by eutomers 11c and 13a. […] Subsequent EC50 evaluations (Table 7) were performed with compound 13a as standard for relative potency normalized to a value of 1.00 (relative potency calculated as [EC50 GFP inhibition 13a]/[EC50 GFP inhibition compound of interest]).

RBL cells = assay: Cell viability by live-dead staining (cytotoxicity), flow cytometry; assay type: cell-based, Rat; conditions: cell viability via live/dead staining, 48-65 h, read-out: EC50 Toxicity
Experimental: as §1

| Compound | EC50 (coronin 1 promoter) [µM] | EC50 (RBL cells; Rattus norvegicus, RBL) [µM] | EC50 (coronin 1 promoter; RBL) [µM] | EC50 (RBL cells) [µM] |
| --- | --- | --- | --- | --- |
| COC(=O)C1=C(C)NC2=C(C(=O)C[C@H](c3ccccc3OC)C2)[C@@H]1c1cccc(O)c1 (stereo in doubt) [11a, methyl-4-(3-hydroxyphenyl)-7-(2-methoxyphenyl)-2-methyl-5-oxo-1,4,5,6,7,8-hexahydro-3-quinolinecarboxylate] | 0.5 | > 9 |  |  |
| COC(=O)C1=C(C)NC2=C(C(=O)C[C@H](c3ccccc3OC)C2)[C@H]1c1cccc(O)c1 (stereo in doubt) [11b, methyl-4-(3-hydroxyphenyl)-7-(2-methoxyphenyl)-2-methyl-5-oxo-1,4,5,6,7,8-hexahydro-3-quinolinecarboxylate] |  | > 36 | > 36 |  |
| COc1ccccc1[C@H]1CC(=O)C2=C(C1)NC(C)=C(C(=O)OCC1CCCO1)[C@H]2c1cccc(O)c1 (stereo in doubt) [12a, tetrahydro-2-furanylmethyl-4-(3-hydroxyphenyl)-7-(2-methoxyphenyl)-2-methyl-5-oxo-1,4,5,6,7,8-hexahydro-3-quinolinecarboxylate] |  | > 30 | 0.2 |  |
| COc1ccccc1[C@H]1CC(=O)C2=C(C1)NC(C)=C(C(=O)OCC1CCCO1)[C@@H]2c1cccc(O)c1 (stereo in doubt) [12b, tetrahydro-2-furanylmethyl-4-(3-hydroxyphenyl)-7-(2-methoxyphenyl)-2-methyl-5-oxo-1,4,5,6,7,8-hexahydro-3-quinolinecarboxylate] |  | > 30 | > 30 |  |
| COC(=O)C1=C(C)NC2=C(C(=O)C[C@H](c3ccccc3OC)C2)[C@@H]1c1cccc(O)c1 [11c, methyl (4S, 7R)-4-(3-hydroxyphenyl)-7-(2-methoxyphenyl)-2-methyl-5-oxo-1,4,5,6,7,8-hexahydro-3-quinolinecarboxylate] | 0.175 |  |  | > 9 |
| COC(=O)C1=C(C)NC2=C(C(=O)C[C@@H](c3ccccc3OC)C2)[C@H]1c1cccc(O)c1 [11d, methyl-4-(3-hydroxyphenyl)-7-(2-methoxyphenyl)-2-methyl-5-oxo-1,4,5,6,7,8-hexahydro-3-quinolinecarboxylate] |  | > 18 | 2 |  |
| COc1ccccc1[C@@H]1CC(=O)C2=C(C1)NC(C)=C(C(=O)OC[C@@H]1CCCO1)[C@@H]2c1cccc(O)c1 [12f, tetrahydro-2-furanylmethyl-4-(3-hydroxyphenyl)-7-(2-methoxyphenyl)-2-methyl-5-oxo-1,4,5,6,7,8-hexahydro-3-quinolinecarboxylate] |  | > 2 | 2.5 |  |
| COC(=O)C1=C(C)NC2=C(C(=O)CC(c3ccccc3OC)C2)C1c1ccccc1 (stereo not shown) [compound 14, methyl 7-(2-methoxyphenyl)-2-methyl-5-oxo-4-phenyl-1,4,5,6,7,8-hexahydroquinoline-3-carboxylate] |  | > 6 | 0.25 |  |
| COC(=O)C1=C(C)NC2=C(C(=O)CC(c3ccccc3OC)C2)C1c1cccc(OC)c1 (stereo not shown) [compound 15, methyl 7-(2-methoxyphenyl)-4-(3-methoxyphenyl)-2-methyl-5-oxo-1,4,5,6,7,8-hexahydroquinoline-3-carboxylate] |  | > 15 | 1.2 |  |
| COC(=O)C1=C(C)NC2=C(C(=O)CC(c3ccccc3OC)C2)C1c1ccccc1O (stereo not shown) [compound 16, methyl 4-(2-hydroxyphenyl)-7-(2-methoxyphenyl)-2-methyl-5-oxo-1,4,5,6,7,8-hexahydroquinoline-3-carboxylate] |  | > 7.5 | 0.9 |  |
| COCCCCOC(=O)C1=C(C)NC2=C(C(=O)CC(c3ccccc3OC)C2)C1c1cccc(O)c1 (stereo not shown) [compound 17, 4-methoxybutyl 4-(3-hydroxyphenyl)-7-(2-methoxyphenyl)-2-methyl-5-oxo-1,4,5,6,7,8-hexahydroquinoline-3-carboxylate] |  | > 5 | 0.1 |  |
| COc1ccccc1C1CC(=O)C2=C(C1)NC(C)=C(C(=O)OCC1CC(C)(C)OC(C)(C)C1)C2c1cccc(O)c1 (stereo not shown) [compound 19, (2,2,6,6-tetramethyltetrahydro-2H-pyran-4-yl)methyl 4-(3-hydroxyphenyl)-7-(2-methoxyphenyl)-2-methyl-5-oxo-1,4,5,6,7,8-hexahydroquinoline-3-carboxylate] |  | > 2.5 | 0.16 |  |
| COc1ccccc1C1CC(=O)C2=C(C1)NC(C)=C(C(=O)OC1COC1)C2c1cccc(O)c1 (stereo not shown) [compound 20, oxetan-3-yl 4-(3-hydroxyphenyl)-7-(2-methoxyphenyl)-2-methyl-5-oxo-1,4,5,6,7,8-hexahydroquinoline-3-carboxylate] |  | > 2.5 | 0.5 |  |
| COc1ccccc1C1CC(=O)C2=C(C1)NC(C)=C(C(=O)OC(C)(C)C)C2c1cccc(O)c1 (stereo not shown) [compound 21, tert-butyl 4-(3-hydroxyphenyl)-7-(2-methoxyphenyl)-2-methyl-5-oxo-1,4,5,6,7,8-hexahydroquinoline-3-carboxylate] |  | > 2.5 | 0.28 |  |
